From ChEMBL document CHEMBL6178020, “Harder than Metal: Challenging Antimicrobial Resistance with Metallo-β-lactamase Inhibitors” (J Med Chem, 2025) come the findings set out here.

Assay [1] deals with T1, Metallo-beta-lactamase type 2 (Bacteria, UniProt C7C422). Put plainly: Binding affinity to N-terminal NDM-1 (unknown origin) extracted from Escherichia coli BL21 assessed as inhibition constant.
Assay [2] has as its target T1, Metallo-beta-lactamase type 2. Put plainly: Inhibition of Metallo-beta-lactamase NDM-1 (unknown origin).
In assay [3] the test system is Serratia marcescens. As to the kind of experiment: Antibacterial activity against Serratia marcescens expressing IMP-1 assessed as bacterial growth inhibition in presence of IPM. The assay is classed as functional.
Assay [4] concerns Escherichia coli. As to the kind of experiment: Antibacterial activity against Escherichia coli expressing NDM-1 assessed as bacterial growth inhibition in presence of IPM. The assay is classed as functional.
Assay [5] deals with Klebsiella pneumoniae. As to the kind of experiment: Antibacterial activity against Klebsiella pneumoniae expressing VIM-1 assessed as bacterial growth inhibition in presence of IPM. The assay is classed as functional.
In assay [6] the target is T1, Metallo-beta-lactamase type 2. Put plainly: Inhibition of NDM-1 (unknown origin).
For assay [7] the target is unchanged. As to the kind of experiment: Inhibition of N-terminal NDM-1 (unknown origin) extracted from Escherichia coli BL21.
Assay [8] deals with Escherichia coli. As to the kind of experiment: Antibacterial activity against carbapenem-resistant Escherichia coli […] infected in mouse assessed as fold reduction in bacterial load at 10 mg/kg, sc measured for 24 hrs in presence of Meropenem. The assay is classed as functional.
The test system of assay [9] is Klebsiella pneumoniae. Put plainly: Antibacterial activity against carbapenem-resistant Klebsiella pneumoniae B68-1 infected in mouse assessed as fold reduction in bacterial load at 10 mg/kg, sc measured for 24 hrs in presence of Meropenem. The assay is classed as functional.
Assay [10] has as its system Escherichia coli. As to the kind of experiment: Antibacterial activity against carbapenem-resistant Escherichia coli IHMA 997800 infected in mouse assessed as fold reduction in bacterial load at 10 mg/kg, sc measured for 24 hrs in presence of Meropenem. It counts as functional.
The test system of assay [11] is Escherichia coli. As to the kind of experiment: Antibacterial activity against carbapenem-resistant Escherichia coli IR57 infected in mouse assessed as fold reduction in bacterial load at 10 mg/kg, sc measured for 24 hrs in presence of Meropenem. It counts as functional.
Assay [12] concerns Klebsiella pneumoniae. As to the kind of experiment: Antibacterial activity against Klebsiella pneumoniae expressing VIM-1 assessed as bacterial growth inhibition. The assay is classed as functional.
For assay [13], the system named is Serratia marcescens. As to the kind of experiment: Antibacterial activity against Serratia marcescens expressing IMP-1 assessed as bacterial growth inhibition. The assay is classed as functional.
The subject of assay [14] is Escherichia coli. As to the kind of experiment: Antibacterial activity against Escherichia coli expressing NDM-1 assessed as bacterial growth inhibition. The assay is classed as functional.

Structures are written as SMILES. Bounds are passed on as bounds.

T1 sequence (C7C422 whole entry): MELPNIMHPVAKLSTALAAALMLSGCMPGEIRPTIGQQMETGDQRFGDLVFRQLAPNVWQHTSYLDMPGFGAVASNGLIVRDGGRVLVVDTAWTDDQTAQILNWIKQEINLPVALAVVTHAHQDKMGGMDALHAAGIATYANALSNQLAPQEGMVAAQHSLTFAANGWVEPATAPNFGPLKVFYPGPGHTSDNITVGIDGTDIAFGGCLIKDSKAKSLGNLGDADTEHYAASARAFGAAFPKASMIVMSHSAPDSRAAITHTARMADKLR

The term Ki denotes the dissociation constant of the complex between target and ligand, obtained from inhibition or displacement. `N=C(N)NNC(=O)Nc1c(F)cc(S(=O)(=O)Nc2scnc2C(=O)O)cc1F`: in assay [1], the inhibition constant Ki was 40 nM.
Take `O=C(O)CN1CCN(CC(=O)O)CCN(CC(=O)O)CC1`: the IC50 in assay [2] worked out at 0.28 µM.
With `NS(=O)(=O)c1nccc(-c2ccc(CO)cc2)c1-c1nn[nH]n1`, the MITC95 with Serratia marcescens [3] came to 5.19 µM; in the assay on Escherichia coli [4] it was 0.558 µM; with Klebsiella pneumoniae [5], 11.76 µM. The compound further yielded an IC50 in assay [6] of 35 nM.
For `COc1ccc(Cl)cc1-c1c(C(=O)O)[nH]c2c1CCc1ccccc1-2`, the IC50 in [7] (read-out: IC50) is 50 nM.
As to `Cc1ccc(-c2cccc(S(N)(=O)=O)c2-c2nnn[nH]2)cc1`, the MITC95 with Serratia marcescens [3] is 13.8 µM; in the assay with Escherichia coli [4], 1.48 µM; with Klebsiella pneumoniae [5], 127 µM.
Turning to `C[C@H](CS)C(=O)N1CCC(C(N)=O)CC1`, the IC50 in assay [2] worked out at 11.1 µM.
Still for that read-out and setting: under `C[C@H](CS)C(=O)N1CCCC[C@@H]1C(=O)O` stands 6.9 µM.
On to `C[C@@H](c1cccc2c(-c3ccc(CS(C)(=O)=O)c(F)c3)c(C(=O)O)[nH]c12)N1CC2(CC(CN)C2)OC1=O` (stereo not given in full), for which the “fold change (FC)” value in the assay on Escherichia coli [8], in the assay on Klebsiella pneumoniae [9], in the assay with Escherichia coli [10] and in the assay on Escherichia coli [11] was 7 in each case. For the same compound, the IC50 in assay [7] (read-out: pIC50 (converted)) was less than 1 nM.
`N[C@H](CN[C@H](CN[C@@H](CC(=O)O)C(=O)O)C(=O)O)C(=O)O`: in assay [2], the IC50 turned out to be 4 µM.
As to `Nc1cccc(-c2cc(C(=O)O)nc(C(=O)O)c2)c1`, the IC50 in assay [7] (read-out: IC50) worked out at 80 nM.
The compound `C[C@H](CS)C(=O)N1CCC(CC(N)=O)CC1` showed an IC50 in assay [2] of 27.9 µM.
In the case of `O=C(O)c1ncsc1NS(=O)(=O)c1cccnc1`, in assay [1], the Ki worked out at 800 nM.
Take `C[C@H](CS)C(=O)N1CCC(C(=O)O)CC1`: the IC50 in [2] was found to be 4.9 µM.
`OCC(S)CS` (stereo not given) [DIMERCAPROL]: the IC50 in [2] stood at 1.3 µM.
The same measure, in the same setting: under `C[C@H](CS)C(=O)N1CCC(CC(=O)O)CC1` stands 19.8 µM.
The same measure, in the same setting: under `C[C@H](CS)C(=O)N1CCc2ccccc2[C@@H]1C(=O)O` stands 4.6 µM; under `O=C(O)CNC(=O)C(CS)Cc1ccccc1` (stereo not given) [THIORPHAN], 1.8 µM.
For the compound `C[C@@H](O)[C@H]1C(=O)N2C(C(=O)O)=C(SCCNC=N)C[C@H]12` [IMIPENEM ANHYDROUS], the MITC95 is 64 µg/mL in the assay with Klebsiella pneumoniae [12], 16 µg/mL in the assay on Serratia marcescens [13] and 32 µg/mL with Escherichia coli [14].
On to `Nc1cc(-c2nnn[nH]2)c(S(N)(=O)=O)cc1S(N)(=O)=O`, for which, in assay [6], the IC50 was 33 nM.
Regarding `O=C(O)[C@H]1CCCN1C(=O)C(CS)CS`, in assay [2], the IC50 amounted to 75 µM.
The same measure, in the same setting: under `C[C@H](CS)C(=O)N1Cc2ccccc2C[C@@H]1C(=O)O` stands greater than 300 µM; under `O=C(O)CN1CCN(CC(=O)O)CCN(CC(=O)O)CCN(CC(=O)O)CC1` [TETRAXETAN], 1.34 µM.
Take `C[C@H](CS)C(=O)N1CCCCC[C@@H]1C(=O)O`: the IC50 in assay [2] was 20.4 µM.
In the case of `C[C@H](CS)C(=O)N1CCC[C@H](C(=O)O)C1`, in assay [2], the IC50 turned out to be 28.4 µM.
